{"source": "patent US11478528B2", "about": "“Antimicrobial peptides against Listeria monocytogenes” (MATERIAS S.r.l., priority 2017, dated 2022)", "key": {"[1]": {"tested_on": "L. monocytogenes (LM2 food-isolated strain)", "test": "Antimicrobial activity of Bac-amp1 coupled gold nanoparticles (CFU count)", "format": "cell-based, Listeria monocytogenes", "settings": "0.10 μM to 0.58 μM, 15×10^4 CFU/mL, 6 h at 37° C.", "experimental": "The bactericidal efficacy of the functionalized gold nanoparticles prepared in Example 6 was determined against L. monocytogenes (LM2 food-isolated strain) and S. Typhimurium (ATCC 13311 strain) bacteria, which allowed the evaluation of the minimal bactericidal concentration (MBC50), corresponding to the lowest peptide concentration able to cause at least 50% reduction in the number of viable bacteria on agar plates.\nL. monocytogenes and S. Typhimurium were grown at 37° C. in Half Fraser (Biorad-Italia) and BPW (Biomerieux-Italia) broths, respectively. […]\nData were determined by numbering the surviving colony forming units (CFU) in the Au—NPs-Bac-amp1 plates and in the Au—NPs plates and were expressed as percent decrease in the number of CFU with respect to the initial number of CFU. […]\nThus, in another set of experiments, the activity of Bac-amp1 coupled nanoparticles was determined incubating 15×10^4 CFU/mL (colony forming units/mL) of Listeria with increasing concentrations, ranging from 0.10 μM to 0.58 μM, of coupled nanoparticles (Au—NPs-Bac-amp1 plates), non-functionalized gold nanoparticles (Au—NPs plates) or free peptides (Bac-amp1 plates) for 6 h at 37° C. The number of viable colonies for the different plates at each concentration tested were counted."}, "S. aureus (NCTC)": {"tested_on": "S. aureus (NCTC)", "format": "cell-based, Staphylococcus aureus", "settings": "6 h", "experimental": "The evaluation of the minimum bactericidal concentration (MBC) was carried out as described in Bilikova et al, (2015, Peptides 68:190-196) and the evaluation of the effective concentration to reduce 50% of the bacterial population (EC50) of the two peptides was carried out with the micro-dilutions of the broth as described in Wang H X and Ng T B (2003, Peptides 24:969-972). Standard deviations for triple incubations of each plate and EC50 evaluation were determined using GraphPad Prism version 6.00 (Graph-Pad Software, La Jolla Calif. USA) Staphylococcus aureus A control stock suspension was prepared in which 10^3 CFU of […] (6571 strain) were inoculated in 10 ml of BPW. […] Also in this case, the dilution series included control plates inoculated with DMSO without the peptide and control plates with bacteria only. 50 μl of each bacterial suspension were poured onto petri dishes with blood agar or rabbit plasma fibrinogen agar and incubated for 20 hours at 37° C. In all the investigated experimental conditions, the plate counting method was used to estimate the bactericidal activity of the peptides. Specifically, the number of colonies grown on plates with agar seeded with bacterial suspensions in the absence or in the presence of individual dilutions of peptides was counted and compared. […]"}, "[2]": {"test": "pH stability assay by Circular Dichroism", "settings": "10 mM SDS, 24 hours at 37° C.", "experimental": "The stability of the Bac-amp1 and IDR-1018 peptides was assessed by studying their secondary structure with Circular Dichroism (CD) spectroscopy in the presence of Sodium Dodecyl Sulfate (SDS) micelles at a concentration of 10 mM to mimic the condition of the cell membrane, in different temperature and pH conditions.\nCD assays were performed with a Jasco J-810 Spectropolarimeter equipped with a thermostatted cuvette compartment. The samples were loaded into a 0.1 cm-long quartz cuvette (Hellma Analytics) and the spectrum was analyzed in the 190 nm to 250 nm range at temperatures of 15° C. or 90° C. for each sample.\nThe CD spectra were acquired at a scanning speed of 20 nm/min, and the recorded results represent an average of 5 scans. The spectra at 90° C. were collected at time zero and after 2 hours to evaluate the thermostability of peptides at high temperatures.\nThe average ellipticity of the residues ([θ], degrees cm^2 dmol^−1) was calculated using the following equation: [θ]=100θ/cn1 where θ represents ellipticity (m degrees), c is the concentration (mM) of the peptide, n is the number of residues. The secondary structure was calculated through the DICHROWEB site (Whitmore L and Wallace B A, 2004, Nucleic Acids Research 32: 668-673, Whitmore L and Wallace B A, 2008, Biopolymers 89:392-400, Lobley et al, 2002, Bioinformatics 18:211-212), using three different algorithms (SELCON3, CONTIN-LLe CDSSTR) (Sreerema N and Woody R W, 1993, Analytical Biochemistry 287:252-260; Sreerema N et al, 1999, Protein Science 8:370-380, Provencher S W and Glockner J, 1981, Biochemistry 20:33-37, Van Stokkum I H M et al, 1990, Analytical Biochemistry 191:110-118, Compton L A and Johnson W C, 1986, Analytical Biochemistry 155:155-167, Manavalan P and Johnson W C, 1987, Analytical Biochemistry 167:76-85, Sreerama N et al, 2000, Protein Science 8:370-380) and selecting as a comparison data set the SMP180 protein, which includes a high number of soluble and membrane proteins (Abdul-Gader A et al, 2011, Bioinformatics 27:1630-1636). […]"}, "[3]": {"tested_on": "L. monocytogenes biofilms", "procedure": "The antibiofilm activity of the Bac-amp1 and IDR-1018 peptides was tested by analyzing their ability to inhibit the formation of bacterial biofilms of L. monocytogenes.\nThe ability of peptides to prevent the formation of L. monocytogenes biofilms was determined according to the microplate assay described in G. Di Bonaventura et al. (2008, J Appl Microbiol 104(6):1552-61) with some modifications.\n10 ml of bacterial suspension were then centrifuged the cell pellet was washed in PBS and diluted in BHI broth, reaching the concentration of about 10^3 CFU/ml of standardized inoculum.\nThe biofilm formation assays were conducted using as target surfaces the Aisi 304 stainless steel discs having a diameter of 14.5 mm (SS) used in the food industry as food contact surfaces. The discs were placed on 24-well Falcon® tissue culture plates, (Thermo Fisher Scientific Inc., Waltham, Mass., USA), with flat bottom and lid. Before use, the stainless steel discs were immersed in 10% acetone and left under weak stirring at room temperature for 30 min. After washing in ultrapure sterile water, the discs were incubated in ethanol 99.8% for 10 minutes under weak stirring and then washed in ultrapure sterile water, dried, packaged and sterilized at 121° C., 1 atm for 15 minutes.\nIn each set of experiments, 600 μl of standardized inoculum in the presence or absence of each of the peptides at the concentration of 12.5 μM, 25 μM or 50 μM were added to 24-well culture plates containing the previously treated stainless steel materials. BHI Broth was used as a negative control. The plates were incubated at 37° C. for 72 hours under static conditions. The cell count of L. monocytogenes, according to the ISO 11290-2:98 method. After incubation, the SS discs were washed three times with PBS and placed in a new plate to dry at 60° C. for 1 hour. […] Quantitative analysis of biofilm production was performed by adding 1 ml of 33% acetic acid, which removes the dye from the adhered cells. 200 μl of the obtained solution were transferred to a microplate and the crystal violet level (OD) was measured at 492 nm. […]"}}, "note": "Ends that are not written are not given here."}
{"substance": "VRLIVKVRIWRR-NH2 [Bac-amp1, VRLIVKVRIWRR-NH2]", "values": [{"measurement": "bacterial cell death versus concentration", "setting": "[1]", "result": "dose-dependent bacterial cell death"}, {"measurement": "EC50", "setting": "S. aureus (NCTC)", "result": 1.66, "unit": "µM"}, {"measurement": "pH range with increase in the percentage of unordered random coil structure", "setting": "[2]", "result": "1.0-4.0"}, {"measurement": "MIC, antibiofilm activity", "setting": "[3]; biofilms", "result": "25 to 50", "unit": "µM"}, {"measurement": "MBIC100 (minimum biofilm inhibiting concentration)", "setting": "[3]; biofilms, 72 h", "result": "25 to 50", "unit": "µM"}, {"measurement": "reduction of microbial biomass", "setting": "[3]; concentrations of 25-50 μM, 72 h, 37° C., steel discs", "result": 100, "unit": "%"}]}
